Measurements taken from patent US7759331B2, “Pyridine-containing macroheterococylic compounds as kinase inhibitors” (Janssen Pharmaceutica NV, priority 2006, dated 2010).

Assays:
Assay in all cases: Protein kinase selectivity panel
Assay type in all cases: biochemical
Conditions in all cases: 1.0 μM compound, 10 μM ATP
[1] = target: T1, NEK2(h) (Homo sapiens, UniProt P51955)
T1 sequence (P51955 1-445): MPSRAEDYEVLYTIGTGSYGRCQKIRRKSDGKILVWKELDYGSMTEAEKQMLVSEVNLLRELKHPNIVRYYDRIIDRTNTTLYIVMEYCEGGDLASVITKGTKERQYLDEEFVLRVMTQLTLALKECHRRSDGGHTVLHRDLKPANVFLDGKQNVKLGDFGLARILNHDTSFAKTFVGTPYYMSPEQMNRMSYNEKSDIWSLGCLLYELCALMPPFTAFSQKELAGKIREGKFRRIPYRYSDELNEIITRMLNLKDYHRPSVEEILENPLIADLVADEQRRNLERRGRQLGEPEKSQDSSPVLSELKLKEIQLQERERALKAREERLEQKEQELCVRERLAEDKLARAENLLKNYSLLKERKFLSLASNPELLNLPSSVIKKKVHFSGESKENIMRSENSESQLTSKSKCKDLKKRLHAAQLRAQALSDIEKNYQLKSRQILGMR
Procedure, shortened: (§1)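 At a fixed 1.0 μM compound, activity toward peptide or protein substrates was determined with ATP at 10 μM.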

[2] = target: JNK2α2(h) (Homo sapiens, UniProt P45984)
Procedure, shortened: as §1

[3] = target: EGFR(h) (Homo sapiens, UniProt P00533)
Chain of EGFR(h) (P00533 25-1210): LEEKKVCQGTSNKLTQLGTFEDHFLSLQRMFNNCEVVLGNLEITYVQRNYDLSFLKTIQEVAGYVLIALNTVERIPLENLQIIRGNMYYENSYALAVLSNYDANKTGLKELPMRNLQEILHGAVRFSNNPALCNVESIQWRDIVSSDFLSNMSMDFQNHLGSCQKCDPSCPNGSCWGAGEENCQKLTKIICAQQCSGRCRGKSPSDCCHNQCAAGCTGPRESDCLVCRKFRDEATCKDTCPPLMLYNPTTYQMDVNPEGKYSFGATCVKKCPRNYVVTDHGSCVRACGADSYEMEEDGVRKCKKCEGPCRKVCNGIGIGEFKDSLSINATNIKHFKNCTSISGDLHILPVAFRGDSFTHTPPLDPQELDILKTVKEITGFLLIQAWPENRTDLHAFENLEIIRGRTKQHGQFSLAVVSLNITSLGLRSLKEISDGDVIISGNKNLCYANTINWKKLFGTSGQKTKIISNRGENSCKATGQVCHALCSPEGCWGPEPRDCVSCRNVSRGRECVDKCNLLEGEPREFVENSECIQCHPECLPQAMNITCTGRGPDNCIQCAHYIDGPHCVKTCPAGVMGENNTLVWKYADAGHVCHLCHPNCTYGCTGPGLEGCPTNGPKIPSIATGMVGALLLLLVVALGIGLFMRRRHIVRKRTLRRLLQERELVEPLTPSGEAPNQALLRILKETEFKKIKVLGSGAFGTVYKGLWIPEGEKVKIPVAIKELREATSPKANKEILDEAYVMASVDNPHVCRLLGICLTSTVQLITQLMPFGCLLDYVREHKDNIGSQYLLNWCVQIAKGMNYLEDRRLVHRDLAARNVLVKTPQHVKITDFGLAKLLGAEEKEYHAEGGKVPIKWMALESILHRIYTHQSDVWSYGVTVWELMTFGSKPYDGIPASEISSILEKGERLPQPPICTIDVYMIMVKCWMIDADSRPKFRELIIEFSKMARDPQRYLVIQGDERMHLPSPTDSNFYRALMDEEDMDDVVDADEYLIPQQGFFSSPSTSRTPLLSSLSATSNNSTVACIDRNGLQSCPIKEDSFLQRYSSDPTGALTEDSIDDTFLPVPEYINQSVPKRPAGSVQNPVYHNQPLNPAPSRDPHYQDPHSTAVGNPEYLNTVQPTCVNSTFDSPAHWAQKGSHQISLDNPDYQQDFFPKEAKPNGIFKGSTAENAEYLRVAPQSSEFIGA
Procedure, shortened: as §1

[4] = target: MSK1(h) (Homo sapiens, UniProt O75582)
Procedure, shortened: as §1

[5] = target: TrkB(h) (Homo sapiens, UniProt Q16620)
Chain of TrkB(h) (Q16620 32-822): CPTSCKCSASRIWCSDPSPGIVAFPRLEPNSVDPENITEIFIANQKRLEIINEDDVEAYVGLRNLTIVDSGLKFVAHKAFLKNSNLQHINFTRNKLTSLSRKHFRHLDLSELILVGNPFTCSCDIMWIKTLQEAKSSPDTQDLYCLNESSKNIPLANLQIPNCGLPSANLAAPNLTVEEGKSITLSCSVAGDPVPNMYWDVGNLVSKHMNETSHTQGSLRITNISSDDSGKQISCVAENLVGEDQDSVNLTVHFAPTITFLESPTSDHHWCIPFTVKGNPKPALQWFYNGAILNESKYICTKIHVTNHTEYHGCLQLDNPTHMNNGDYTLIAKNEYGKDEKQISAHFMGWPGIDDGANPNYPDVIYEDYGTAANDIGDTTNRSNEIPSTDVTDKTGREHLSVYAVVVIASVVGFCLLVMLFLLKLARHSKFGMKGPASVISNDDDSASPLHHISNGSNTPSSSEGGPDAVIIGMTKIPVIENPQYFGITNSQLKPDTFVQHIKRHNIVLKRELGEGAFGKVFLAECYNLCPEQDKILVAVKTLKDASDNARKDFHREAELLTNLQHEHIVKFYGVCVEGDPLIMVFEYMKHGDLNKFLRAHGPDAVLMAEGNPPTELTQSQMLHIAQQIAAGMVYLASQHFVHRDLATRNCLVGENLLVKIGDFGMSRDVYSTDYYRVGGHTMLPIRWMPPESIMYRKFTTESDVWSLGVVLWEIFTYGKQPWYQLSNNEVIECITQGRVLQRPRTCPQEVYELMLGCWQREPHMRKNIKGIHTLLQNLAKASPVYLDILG
Procedure, shortened: as §1

[6] = target: SAPK2b(h) (Homo sapiens, UniProt Q15759)
Chain of SAPK2b(h) (Q15759 whole entry): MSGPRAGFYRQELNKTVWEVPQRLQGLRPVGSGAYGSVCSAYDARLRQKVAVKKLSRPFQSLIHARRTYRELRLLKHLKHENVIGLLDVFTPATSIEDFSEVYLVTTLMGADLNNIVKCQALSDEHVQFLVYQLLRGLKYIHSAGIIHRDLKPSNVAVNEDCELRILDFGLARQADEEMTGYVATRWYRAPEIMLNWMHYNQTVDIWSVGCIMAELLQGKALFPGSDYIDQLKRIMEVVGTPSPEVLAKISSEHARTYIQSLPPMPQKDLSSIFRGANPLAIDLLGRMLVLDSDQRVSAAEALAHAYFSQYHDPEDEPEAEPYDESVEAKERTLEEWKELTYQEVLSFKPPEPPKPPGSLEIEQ
Procedure, shortened: as §1

[7] = target: Blk(m) (Mus musculus, UniProt P16277)
Chain of Blk(m) (P16277 whole entry): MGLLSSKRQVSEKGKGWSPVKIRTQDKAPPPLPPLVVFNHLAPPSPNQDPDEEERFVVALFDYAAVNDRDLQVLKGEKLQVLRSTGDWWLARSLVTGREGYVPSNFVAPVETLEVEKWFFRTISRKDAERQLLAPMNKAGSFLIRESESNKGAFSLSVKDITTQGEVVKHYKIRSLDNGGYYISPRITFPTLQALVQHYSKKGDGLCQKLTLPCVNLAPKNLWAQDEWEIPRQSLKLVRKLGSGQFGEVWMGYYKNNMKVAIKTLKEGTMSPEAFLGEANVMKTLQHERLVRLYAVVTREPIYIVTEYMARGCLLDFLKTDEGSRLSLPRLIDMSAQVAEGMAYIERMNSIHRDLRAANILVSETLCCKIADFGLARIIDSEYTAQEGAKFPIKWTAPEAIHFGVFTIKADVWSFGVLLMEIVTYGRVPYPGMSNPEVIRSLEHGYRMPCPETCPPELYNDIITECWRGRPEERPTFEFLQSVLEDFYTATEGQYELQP
Procedure, shortened: as §1

[8] = target: FGFR3(h) (Homo sapiens, UniProt P22607)
Procedure, shortened: as §1

[9] = target: PAR-1Bα(h) (Homo sapiens, UniProt Q7KZI7)
Chain of PAR-1Bα(h) (Q7KZI7 1-725 isoform Q7KZI7-4): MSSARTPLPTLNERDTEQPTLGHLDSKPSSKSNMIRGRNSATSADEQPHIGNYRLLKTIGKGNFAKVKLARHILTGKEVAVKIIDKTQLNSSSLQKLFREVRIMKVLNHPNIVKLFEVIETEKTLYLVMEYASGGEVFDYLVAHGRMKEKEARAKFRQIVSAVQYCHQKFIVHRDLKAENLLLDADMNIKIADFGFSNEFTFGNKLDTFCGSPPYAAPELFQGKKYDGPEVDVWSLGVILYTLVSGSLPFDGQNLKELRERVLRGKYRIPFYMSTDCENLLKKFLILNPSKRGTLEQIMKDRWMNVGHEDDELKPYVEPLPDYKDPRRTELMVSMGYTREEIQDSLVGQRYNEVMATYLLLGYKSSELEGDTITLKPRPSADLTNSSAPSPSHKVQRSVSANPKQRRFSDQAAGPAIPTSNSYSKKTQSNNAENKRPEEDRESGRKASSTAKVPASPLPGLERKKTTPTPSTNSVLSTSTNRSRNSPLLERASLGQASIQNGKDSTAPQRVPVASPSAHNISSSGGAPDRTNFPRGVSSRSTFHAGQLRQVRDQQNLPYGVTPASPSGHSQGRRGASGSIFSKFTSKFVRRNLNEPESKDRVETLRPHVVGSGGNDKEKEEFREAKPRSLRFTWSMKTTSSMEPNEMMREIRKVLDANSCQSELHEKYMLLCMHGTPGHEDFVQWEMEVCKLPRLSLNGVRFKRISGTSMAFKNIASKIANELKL
Procedure, shortened: as §1

[10] = target: T2, SGK(h) (Homo sapiens, UniProt O00141, S422D)
T2 sequence (O00141 60-431 S422D limits assumed): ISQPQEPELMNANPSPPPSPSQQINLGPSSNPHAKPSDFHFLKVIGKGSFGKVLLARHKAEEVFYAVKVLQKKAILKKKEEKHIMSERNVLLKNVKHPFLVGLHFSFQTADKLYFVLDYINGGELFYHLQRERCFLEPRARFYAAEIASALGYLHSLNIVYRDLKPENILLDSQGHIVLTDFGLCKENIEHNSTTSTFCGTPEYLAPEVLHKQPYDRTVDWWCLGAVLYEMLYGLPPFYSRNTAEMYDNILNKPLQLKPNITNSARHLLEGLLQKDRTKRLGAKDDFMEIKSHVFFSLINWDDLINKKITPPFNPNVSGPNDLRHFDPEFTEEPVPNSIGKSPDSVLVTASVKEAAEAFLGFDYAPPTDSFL
Procedure, shortened: as §1

[11] = target: Rsk2(h) (Homo sapiens, UniProt P51812)
Chain of Rsk2(h) (P51812 whole entry): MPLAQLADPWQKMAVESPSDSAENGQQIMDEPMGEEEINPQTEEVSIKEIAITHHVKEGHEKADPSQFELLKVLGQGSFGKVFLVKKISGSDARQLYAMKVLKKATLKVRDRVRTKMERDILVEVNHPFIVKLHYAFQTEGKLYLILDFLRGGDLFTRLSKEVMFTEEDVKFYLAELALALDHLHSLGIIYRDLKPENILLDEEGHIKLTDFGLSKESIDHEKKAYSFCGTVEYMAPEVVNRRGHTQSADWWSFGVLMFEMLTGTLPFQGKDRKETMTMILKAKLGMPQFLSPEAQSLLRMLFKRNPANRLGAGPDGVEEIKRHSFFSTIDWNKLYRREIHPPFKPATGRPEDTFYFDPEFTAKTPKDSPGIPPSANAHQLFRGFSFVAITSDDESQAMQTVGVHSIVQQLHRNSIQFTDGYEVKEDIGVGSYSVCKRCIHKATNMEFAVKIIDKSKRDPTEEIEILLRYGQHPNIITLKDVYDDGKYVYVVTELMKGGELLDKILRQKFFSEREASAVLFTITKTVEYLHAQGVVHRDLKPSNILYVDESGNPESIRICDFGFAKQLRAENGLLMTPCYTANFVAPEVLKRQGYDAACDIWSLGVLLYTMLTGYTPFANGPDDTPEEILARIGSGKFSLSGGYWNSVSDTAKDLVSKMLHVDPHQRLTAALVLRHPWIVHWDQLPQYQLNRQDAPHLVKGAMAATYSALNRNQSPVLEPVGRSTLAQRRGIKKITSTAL
Procedure, shortened: as §1

[12] = target: Arg(m) (Mus musculus, UniProt Q4JIM5)
Procedure, shortened: as §1

[13] = target: T3, Aurora-A(h) (Homo sapiens, UniProt O14965)
T3 sequence (O14965 1-403): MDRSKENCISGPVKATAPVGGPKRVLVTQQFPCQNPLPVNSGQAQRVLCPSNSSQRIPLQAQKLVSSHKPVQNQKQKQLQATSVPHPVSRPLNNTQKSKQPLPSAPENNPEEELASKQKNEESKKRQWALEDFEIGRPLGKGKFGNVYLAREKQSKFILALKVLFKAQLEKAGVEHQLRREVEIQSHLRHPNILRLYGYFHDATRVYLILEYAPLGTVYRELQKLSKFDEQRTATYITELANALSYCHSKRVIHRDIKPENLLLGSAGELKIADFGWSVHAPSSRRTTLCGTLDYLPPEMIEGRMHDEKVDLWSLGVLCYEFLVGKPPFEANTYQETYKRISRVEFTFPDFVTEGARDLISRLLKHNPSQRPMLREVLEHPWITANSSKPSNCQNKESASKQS
Procedure, shortened: as §1

[14] = target: JNK3(h) (Homo sapiens, UniProt P53779)
Chain of JNK3(h) (P53779 whole entry): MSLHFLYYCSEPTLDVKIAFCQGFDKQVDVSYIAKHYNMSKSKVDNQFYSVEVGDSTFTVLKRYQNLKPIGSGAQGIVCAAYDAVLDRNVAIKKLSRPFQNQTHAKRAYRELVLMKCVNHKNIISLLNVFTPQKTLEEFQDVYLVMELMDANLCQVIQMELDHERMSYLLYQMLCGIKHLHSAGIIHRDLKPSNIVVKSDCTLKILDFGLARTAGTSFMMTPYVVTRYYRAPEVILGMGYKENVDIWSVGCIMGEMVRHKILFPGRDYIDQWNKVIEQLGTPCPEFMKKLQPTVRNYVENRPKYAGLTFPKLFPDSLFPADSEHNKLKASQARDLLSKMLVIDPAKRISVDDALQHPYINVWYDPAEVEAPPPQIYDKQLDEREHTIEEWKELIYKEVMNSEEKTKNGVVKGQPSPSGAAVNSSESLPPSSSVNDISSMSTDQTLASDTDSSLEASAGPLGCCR
Procedure, shortened: as §1

[15] = target: T4, PKCι(h) (Homo sapiens, UniProt P41743)
T4 sequence (P41743 1-596): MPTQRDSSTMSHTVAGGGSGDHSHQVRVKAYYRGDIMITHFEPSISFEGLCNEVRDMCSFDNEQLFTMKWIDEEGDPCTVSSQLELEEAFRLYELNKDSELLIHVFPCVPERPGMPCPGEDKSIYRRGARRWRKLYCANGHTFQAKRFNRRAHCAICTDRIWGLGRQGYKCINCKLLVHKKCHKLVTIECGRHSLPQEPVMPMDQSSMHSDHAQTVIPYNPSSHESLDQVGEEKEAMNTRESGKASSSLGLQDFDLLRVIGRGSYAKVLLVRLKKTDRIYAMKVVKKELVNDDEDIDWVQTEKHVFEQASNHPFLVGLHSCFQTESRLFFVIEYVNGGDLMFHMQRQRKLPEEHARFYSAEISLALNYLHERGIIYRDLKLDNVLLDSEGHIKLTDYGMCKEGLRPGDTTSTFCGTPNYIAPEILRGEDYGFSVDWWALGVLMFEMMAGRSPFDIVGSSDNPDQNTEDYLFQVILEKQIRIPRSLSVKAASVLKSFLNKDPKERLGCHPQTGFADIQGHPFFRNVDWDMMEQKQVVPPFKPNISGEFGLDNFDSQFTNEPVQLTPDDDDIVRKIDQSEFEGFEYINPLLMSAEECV
Procedure, shortened: as §1

[16] = target: Abl(T315l)(h) (Homo sapiens, UniProt P00519, T315I)
Procedure, shortened: as §1

Row | Activity at Protein Kinase Assays (% of control), NEK2(h) [1] | Activity at Protein Kinase Assays (% of control), JNK2α2(h) [2] | Activity at Protein Kinase Assays (% of control), EGFR(h) [3] | Activity at Protein Kinase Assays (% of control), MSK1(h) [4] | Activity at Protein Kinase Assays (% of control), TrkB(h) [5] | Activity at Protein Kinase Assays (% of control), SAPK2b(h) [6] | Activity at Protein Kinase Assays (% of control), Blk(m) [7] | Activity at Protein Kinase Assays (% of control), FGFR3(h) [8] | Activity at Protein Kinase Assays (% of control), PAR-1Bα(h) [9] | Activity at Protein Kinase Assays (% of control), SGK(h) [10] | Activity at Protein Kinase Assays (% of control), Rsk2(h) [11] | Activity at Protein Kinase Assays (% of control), Arg(m) [12] | Activity at Protein Kinase Assays (% of control), Aurora-A(h) [13] | Activity at Protein Kinase Assays (% of control), JNK3(h) [14] | Activity at Protein Kinase Assays (% of control), PKCι(h) [15] | Activity at Protein Kinase Assays (% of control), Abl(T315l)(h) [16] | SMILES
1 | 105 % of control | 114 % of control | 108 % of control | 38 % of control | 105 % of control | 114 % of control | 74 % of control | 114 % of control | 96 % of control | 109 % of control | 12 % of control | 121 % of control | 111 % of control | 103 % of control | 121 % of control | 77 % of control | O=C1NC(=O)C2=C1c1cn(c3ccccc13)CCCc1cc(nc(N3CCCC3)c1)CCCn1cc2c2ccccc21 [Cpd 6, 20-pyrrolidin-1-yl-4,14,19,26-tetraazaheptacyclo[24.6.1.1^7,14.1^18,22.0^2,6.0^8,13.0^27,32]pentatriaconta-1(33),2(6),7(35),8,10,12,18(34),19,21,27,29,31-dodecaene-3,5-dione]
2 | 99 % of control | 110 % of control | 104 % of control | 104 % of control | 106 % of control | 99 % of control | 91 % of control | 117 % of control | 101 % of control | 93 % of control | 63 % of control | 130 % of control | 106 % of control | 102 % of control | 90 % of control | 103 % of control | O=C1NC(=O)C2=C1c1cn(c3ccccc13)CCCc1ccc(c(N3CCCC3)n1)CCCn1cc2c2ccccc21 [Cpd 7, 31-pyrrolidin-1-yl-5,15,25,30-tetraazaheptacyclo[27.2.2.1^5,12.1^18,25.0^6,11.0^13,17.0^19,24]pentatriaconta-1(31),6,8,10,12(35),13(17),18(34),19,21,23,29,32-dodecaene-14,16-dione]
3 | 104 % of control | 96 % of control | 94 % of control | 36 % of control | – | 104 % of control | 109 % of control | 75 % of control | 94 % of control | 93 % of control | 32 % of control | 113 % of control | 109 % of control | 96 % of control | 104 % of control | 100 % of control | CN(C)c1nc2ccc1CCCCn1cc(c3ccccc31)C1=C(C(=O)NC1=O)c1cn(c3ccccc13)CCC2 [Cpd 1, 31-(dimethylamino)-5,15,25,32-tetraazaheptacyclo[28.2.2.1^5,12.1^18,25.0^6,11.0^13,17.0^19,24]hexatriaconta-1(32),6,8,10,12(36),13(17),18(35),19,21,23,30,33-dodecaene-14,16-dione]
4 | 102 % of control | 106 % of control | 96 % of control | 58 % of control | 98 % of control | 119 % of control | 70 % of control | 84 % of control | 100 % of control | 105 % of control | 10 % of control | 129 % of control | 111 % of control | 107 % of control | 117 % of control | 79 % of control | CN(C)c1cc2cc(n1)CCCn1cc(c3ccccc31)C1=C(C(=O)NC1=O)c1cn(c3ccccc13)CCC2 [Cpd 2, 20-(dimethylamino)-4,14,19,26-tetraazaheptacyclo[24.6.1.1^7,14.1^18,22.0^2,6.0^8,13.0^27,32]pentatriaconta-1(33),2(6),7(35),8,10,12,18(34),19,21,27,29,31-dodecaene-3,5-dione]
